# According to patent US8835429B2, “Pyrimidine compounds, their use as mTOR kinase and Pl3 kinase inhibitors, and their syntheses” (Wyeth LLC, priority 2009, dated 2014):
# Legend:
# PI3K-alpha = PI3K-alpha (Homo sapiens, UniProt P42336); assay: PI3K-alpha fluorescence polarization assay; format: biochemical; conditions: 20 μM PIP2, 25 μM ATP; read-out: PI3Kα IC50
# Procedure: The reaction buffer was 20 mM HEPES, pH 7.5, 2 mM MgCl2, 0.05% CHAPS; and 0.01% βME (added fresh). The stop/detection buffer was 100 mM HEPES, pH 7.5, 4 mM EDTA, 0.05% CHAPS; ATP 20 mM in water; PIP2 (diC8, Echelon, Salt Lake City Utah cat #P-4508) 1 mM in water (MW=856.5). The GST-GRP was 1.75 mg/mL or 1.4 mg/mL in 10% glycerol. The red detector (TAMRA) was 2.5 μM. Nunc 384-well black polypropylene fluorescent plates were used for PI3K assays.
# The assay is run by placing 5 μL of diluted enzyme per well, then 5 μL of diluted compound (or 9.5 μL enzyme then 0.5 μL compound in DMSO) is added and mixed. Then, 10 μL substrate is added to start the reaction. The samples are incubated 30-60 minutes, then the reaction is stopped by adding 20 μL stop/detector mix. PI3K is diluted with reaction buffer (e.g., 5 μL or 7.5 μL PI3K into 620 μL reaction buffer), and 5 μL of diluted enzyme is used per well. A 5 μL portion of reaction buffer or of drug diluted in buffer (e.g., 4 μL/100 so final DMSO is 1% in reaction) is added to each. Pipetting up and down mixes the samples. Alternatively, the enzyme can be diluted to 1215 μL. In this case 9.8 μL is added per well and 0.2 μL compound is added in DMSO.
# To prepare 1 mL of substrate solution, 955 μL reaction buffer, 40 μL PIP2, and 2.5 μL ATP are mixed. 10 μL of substrate is added to each well to start the reaction. […] The stop/detector mix is prepared by mixing 4 μL red detector and 1.6 μL or 2.0 μL GST-GRP with 1 mL stop buffer, which results in 10 nM probe and 70 nM GST-GRP. 20 μL of the stop/detector mix is added to each well to stop the reaction. The plates are read after 30-90 minutes keeping the red probe solutions dark. For the zero time point, stop/detector mix is added to the enzyme just before adding substrate. For an extra control, stop/detector mix is added to buffer (no enzyme) and substrate or to just buffer (no substrate). […] The recommended reaction has 0.06 μL per 20 μL (0.015 μg/20 μL) or 0.01125 μg/15 μL or 0.75 μg/mL.
# Plates are read on machines with filters for TAMRA. The units are mP with no enzyme controls reading app 190-220 mP units. Fully active enzyme reduces fluorescence polarization down to 70-100 mP after 30 minutes. An active compound raises the mP values halfway to control or to 120-150 mP units.
# LNCap = assay: In vitro cell growth assay (MTS), LNCap; format: cell-based; conditions: LNCaP, 72 h, human prostate line, three days after drug treatment
# Procedure: (§1) The cell lines used were human prostate lines LNCap and PC3MM2, human breast lines MDA468 and MCF7, human renal line HTB44 (A498), human colon line HCT116, and human ovarian line OVCAR3. Cells were plated in 96-well culture plates. One day following plating, the inhibitors were added to cells. Three days after drug treatment, viable cell densities were determined by metabolic conversion (by viable cells) of the dye MTS, a well-established cell proliferation assay. The assays were performed using an assay kit purchased from Promega Corp. (Madison, Wis.) following the protocol supplied with the kit. The MTS assay results were read in a 96-well plate reader by measuring absorbance at 490 nm. The effect of each treatment was calculated as percent of control growth relative to the vehicle-treated cells grown in the same culture plate.
# MDA468 = assay: In vitro cell growth assay (MTS), MDA468; format: cell-based; conditions: 72 h, human breast line MDA468, three days after drug treatment, read-out: MDA IC50
# Procedure: as §1
# mTOR = mTOR (Homo sapiens, UniProt P42345); assay: mTOR enzyme assay (DELFIA, purified FLAG-TOR, His6-S6K substrate); format: biochemical; set-up: FLAG; conditions: 100 μM ATP, 2 hours
# Chain of mTOR (P42345 1360-2549 limits assumed): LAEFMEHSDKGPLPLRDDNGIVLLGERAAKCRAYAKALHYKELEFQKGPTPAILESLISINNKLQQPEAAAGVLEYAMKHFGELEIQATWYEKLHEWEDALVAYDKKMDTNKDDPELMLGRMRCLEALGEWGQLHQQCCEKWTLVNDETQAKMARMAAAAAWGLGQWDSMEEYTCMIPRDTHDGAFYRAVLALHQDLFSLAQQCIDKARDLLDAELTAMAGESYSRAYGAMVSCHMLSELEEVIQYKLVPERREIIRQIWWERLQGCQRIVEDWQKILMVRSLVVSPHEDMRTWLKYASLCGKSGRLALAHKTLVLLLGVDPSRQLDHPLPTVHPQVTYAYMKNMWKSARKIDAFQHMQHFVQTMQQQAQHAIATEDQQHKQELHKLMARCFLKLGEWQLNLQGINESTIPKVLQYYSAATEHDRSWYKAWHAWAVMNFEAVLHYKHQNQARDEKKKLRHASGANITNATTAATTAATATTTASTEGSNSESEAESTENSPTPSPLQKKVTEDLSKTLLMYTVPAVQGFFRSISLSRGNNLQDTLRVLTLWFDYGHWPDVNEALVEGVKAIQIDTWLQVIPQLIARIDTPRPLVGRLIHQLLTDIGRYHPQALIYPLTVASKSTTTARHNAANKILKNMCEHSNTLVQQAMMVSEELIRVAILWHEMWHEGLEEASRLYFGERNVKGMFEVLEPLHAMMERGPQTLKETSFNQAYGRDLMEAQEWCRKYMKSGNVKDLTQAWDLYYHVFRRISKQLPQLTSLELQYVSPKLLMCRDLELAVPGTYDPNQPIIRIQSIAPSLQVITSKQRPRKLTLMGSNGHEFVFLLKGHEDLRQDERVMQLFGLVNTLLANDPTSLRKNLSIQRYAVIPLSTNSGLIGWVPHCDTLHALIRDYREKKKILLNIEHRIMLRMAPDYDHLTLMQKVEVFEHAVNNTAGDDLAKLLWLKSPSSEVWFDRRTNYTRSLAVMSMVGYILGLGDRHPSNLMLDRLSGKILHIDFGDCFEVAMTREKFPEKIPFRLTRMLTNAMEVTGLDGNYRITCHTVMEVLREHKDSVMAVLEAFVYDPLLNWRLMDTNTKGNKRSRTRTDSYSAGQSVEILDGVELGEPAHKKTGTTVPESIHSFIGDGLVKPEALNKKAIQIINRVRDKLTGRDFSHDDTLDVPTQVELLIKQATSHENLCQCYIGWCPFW
# Chain of PI3K-alpha (P42336 whole entry, species assumed): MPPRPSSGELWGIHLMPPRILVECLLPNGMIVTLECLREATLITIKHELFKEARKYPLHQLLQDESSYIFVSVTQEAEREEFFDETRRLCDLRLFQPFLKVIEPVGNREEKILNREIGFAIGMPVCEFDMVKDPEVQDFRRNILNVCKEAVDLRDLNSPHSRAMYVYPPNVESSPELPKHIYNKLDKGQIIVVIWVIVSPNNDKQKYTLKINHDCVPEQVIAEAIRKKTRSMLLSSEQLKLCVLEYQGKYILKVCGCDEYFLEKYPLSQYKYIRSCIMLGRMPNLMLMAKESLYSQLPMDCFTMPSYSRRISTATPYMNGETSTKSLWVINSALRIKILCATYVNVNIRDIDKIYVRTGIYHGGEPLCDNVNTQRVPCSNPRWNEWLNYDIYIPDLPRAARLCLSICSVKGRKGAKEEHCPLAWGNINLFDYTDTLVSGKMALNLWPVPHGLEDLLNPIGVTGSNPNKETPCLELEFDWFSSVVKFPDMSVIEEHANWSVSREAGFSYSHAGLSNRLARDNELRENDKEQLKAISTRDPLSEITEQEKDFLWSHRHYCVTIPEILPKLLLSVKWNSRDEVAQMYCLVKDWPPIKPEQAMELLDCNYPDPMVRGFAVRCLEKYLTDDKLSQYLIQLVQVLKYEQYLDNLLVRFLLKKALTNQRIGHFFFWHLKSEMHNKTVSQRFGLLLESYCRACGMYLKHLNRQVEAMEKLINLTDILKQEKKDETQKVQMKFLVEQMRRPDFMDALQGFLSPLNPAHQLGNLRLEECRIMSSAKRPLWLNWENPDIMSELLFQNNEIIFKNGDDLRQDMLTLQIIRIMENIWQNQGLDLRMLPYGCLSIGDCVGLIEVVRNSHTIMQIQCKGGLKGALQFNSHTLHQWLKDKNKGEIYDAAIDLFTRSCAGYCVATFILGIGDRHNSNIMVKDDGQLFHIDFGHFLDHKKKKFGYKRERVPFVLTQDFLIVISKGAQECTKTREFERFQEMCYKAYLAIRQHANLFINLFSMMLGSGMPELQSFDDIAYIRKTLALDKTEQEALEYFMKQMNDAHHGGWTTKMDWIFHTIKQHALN
# Chain of PI3K-alpha (P27986 whole entry partner, species assumed): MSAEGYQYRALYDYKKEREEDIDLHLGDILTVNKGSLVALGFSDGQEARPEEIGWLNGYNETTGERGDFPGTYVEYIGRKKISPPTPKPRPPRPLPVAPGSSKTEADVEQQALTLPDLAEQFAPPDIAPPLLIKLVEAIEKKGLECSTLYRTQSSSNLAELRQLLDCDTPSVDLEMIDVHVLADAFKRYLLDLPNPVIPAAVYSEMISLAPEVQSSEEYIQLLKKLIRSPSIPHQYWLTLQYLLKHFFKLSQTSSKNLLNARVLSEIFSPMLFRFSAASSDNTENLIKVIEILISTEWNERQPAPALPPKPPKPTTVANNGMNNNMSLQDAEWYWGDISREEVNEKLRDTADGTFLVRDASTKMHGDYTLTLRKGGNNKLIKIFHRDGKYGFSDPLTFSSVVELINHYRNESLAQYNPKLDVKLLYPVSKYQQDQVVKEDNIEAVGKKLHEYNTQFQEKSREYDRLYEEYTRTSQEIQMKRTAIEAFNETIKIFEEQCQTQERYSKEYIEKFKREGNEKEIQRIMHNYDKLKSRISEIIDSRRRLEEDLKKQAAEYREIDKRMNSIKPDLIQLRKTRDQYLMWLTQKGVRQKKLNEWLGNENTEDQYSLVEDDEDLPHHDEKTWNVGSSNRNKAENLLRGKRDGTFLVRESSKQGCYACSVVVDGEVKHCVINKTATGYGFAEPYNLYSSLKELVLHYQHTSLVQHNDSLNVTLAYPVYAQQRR
Structure (SMILES),IC50 (PI3K-alpha) [nM],IC50 (LNCap) [nM],IC50 (mTOR) [nM],IC50 (MDA468) [nM]
CC(C)Oc1cc(N2CC3CCC(C2)O3)nc(-c2ccc(NC(=O)NC3CC3)cc2)n1 [1-cyclopropyl-3-{4-[4-(1-methylethoxy)-6-(8-oxa-3-azabicyclo[3.2.1]oct-3-yl)pyrimidin-2-yl]phenyl}urea],7200,290,4.45,1800
CC(C)Oc1cc(N2CC3CCC(C2)O3)nc(-c2ccc(NC(=O)Nc3ccc(N4CCN(C)CC4)cc3)cc2)n1 [1-{4-[4-(1-methylethoxy)-6-(8-oxa-3-azabicyclo[3.2.1]oct-3-yl)pyrimidin-2-yl]phenyl}-3-[4-(4-methylpiperazin-1-yl)phenyl]urea],518,30,3.32,105
CC(C)Nc1cc(N2CC3CCC(C2)O3)nc(-c2ccc(NC(=O)Nc3ccc(N4CCN(C)CC4)cc3)cc2)n1 [1-(4-{4-[(1-methylethyl)amino]-6-(8-oxa-3-azabicyclo[3.2.1]oct-3-yl)pyrimidin-2-yl}phenyl)-3-[4-(4-methylpiperazin-1-yl)phenyl]urea],212,13.4,4.17,50
"CN1CCN(c2ccc(NC(=O)Nc3ccc(-c4nc(N5C6CCC5COC6)cc(N5C6CCC5COC6)n4)cc3)cc2)CC1 [1-[4-(4,6-di-3-oxa-8-azabicyclo[3.2.1]oct-8-ylpyrimidin-2-yl)phenyl]-3-[4-(4-methylpiperazin-1-yl)phenyl]urea]",1140,≤ 0.8,1.7,0.8
"O=C(Nc1ccc(-c2cc(N3CC4CCC(C3)O4)nc(-c3ccc(NC(=O)NC4CC4)cc3)n2)cc1)NC1CC1 [N′,N′″-{[6-(8-oxa-3-azabicyclo[3.2.1]oct-3-yl)pyrimidine-2,4-diyl]di-4,1-phenylene}bis(1-cyclopropylurea)]",2920,310,4,1500
CC(C)Nc1cc(N2C3CCC2COC3)nc(-c2ccc(NC(=O)Nc3ccc(OCCN(C)C)cc3)cc2)n1 [1-{4-[2-(dimethylamino)ethoxy]phenyl}-3-{4-[4-(isopropylamino)-6-(3-oxa-8-azabicyclo[3.2.1]oct-8-yl)pyrimidin-2-yl]phenyl}urea],2380,50,3.6,710
"CCN(C(=O)Nc1ccc(N2CCN(C)CC2)cc1)c1ccc(-c2nc(N3CC4CCC(C3)O4)cc(N3CC4CCC(C3)O4)n2)cc1 [1-[4-(4,6-di-8-oxa-3-azabicyclo[3.2.1]oct-3-ylpyrimidin-2-yl)phenyl]-1-ethyl-3-[4-(4-methylpiperazin-1-yl)phenyl]urea]",2440,2800,195,7000
"CC(C)Nc1nc(-c2ccc(NC(=O)Nc3cccnc3)cc2)nc(N2CC3CCC(C2)O3)c1NC(=O)CCN(C)C [N~3~,N~3~-dimethyl-N-(4-[(1-methylethyl)amino]-6-(8-oxa-3-azabicyclo[3.2.1]oct-3-yl)-2-{4-[(pyridin-3-ylcarbamoyl)amino]phenyl}pyrimidin-5-yl)-beta-alaninamide]",5980,30000,13500,≥ 60000
CNC(=O)Nc1ccc(-c2nc(N3CC4CCC(C3)O4)cc(C(F)(F)F)n2)cc1 [1-methyl-3-{4-[4-(8-oxa-3-azabicyclo[3.2.1]oct-3-yl)-6-(trifluoromethyl)pyrimidin-2-yl]phenyl}urea],1550,670,11.5,2100

# The next lines start with results.
IC50 (PI3K-alpha) [nM],IC50 (LNCap) [nM],IC50 (mTOR) [nM],Structure (SMILES),IC50 (MDA468) [nM]
172,0.9,3,CS(=O)(=O)Cc1cc(N2CC3CCC(C2)O3)nc(-c2ccc(NC(=O)Nc3ccccc3)cc2)n1 [1-(4-{4-[(methylsulfonyl)methyl]-6-(8-oxa-3-azabicyclo[3.2.1]oct-3-yl)pyrimidin-2-yl}phenyl)-3-phenylurea],9
953,510,22,CNC(=O)Nc1ccc(-c2nc(-c3ccccc3)cc(N3CC4CCC(C3)O4)n2)cc1 [1-methyl-3-{4-[4-(8-oxa-3-azabicyclo[3.2.1]oct-3-yl)-6-phenylpyrimidin-2-yl]phenyl}urea],2000
1660,310,1.85,"CCNC(=O)Nc1ccc(-c2cc(N3CC4CCC(C3)O4)nc(-c3ccc(NC(=O)NCC)cc3)n2)cc1 [N′,N′″-{[6-(8-oxa-3-azabicyclo[3.2.1]oct-3-yl)pyrimidine-2,4-diyl]di-4,1-phenylene}bis(1-ethylurea)]",790
1730,2050,13.5,CNC(=O)Nc1ccc(-c2nc(CS(C)(=O)=O)cc(N3CC4CCC(C3)O4)n2)cc1 [1-methyl-3-(4-{4-[(methylsulfonyl)methyl]-6-(8-oxa-3-azabicyclo[3.2.1]oct-3-yl)pyrimidin-2-yl}phenyl)urea],3300
125,28,0.56,"O=C(Nc1ccncc1)Nc1ccc(-c2nc(N3CC4CCC(C3)O4)cc(N3CC4CCC(C3)O4)n2)cc1 [1-[4-(4,6-di-8-oxa-3-azabicyclo[3.2.1]oct-3-ylpyrimidin-2-yl)phenyl]-3-pyridin-4-ylurea]",50
102,56,2.9,O=C(Nc1ccc(CO)cc1)Nc1ccc(-c2nc(-c3ccccc3)cc(N3CC4CCC(C3)O4)n2)cc1 [1-[4-(hydroxymethyl)phenyl]-3-{4-[4-(8-oxa-3-azabicyclo[3.2.1]oct-3-yl)-6-phenylpyrimidin-2-yl]phenyl}urea],130
341,195,1.02,CS(=O)(=O)Cc1cc(N2CC3CCC(C2)O3)nc(-c2ccc(NC(=O)Nc3cccnc3)cc2)n1 [1-(4-{4-[(methylsulfonyl)methyl]-6-(8-oxa-3-azabicyclo[3.2.1]oct-3-yl)pyrimidin-2-yl}phenyl)-3-pyridin-3-ylurea],170
2260,5800,200,"CCN(C(=O)Nc1ccncc1)c1ccc(-c2nc(N3CC4CCC(C3)O4)cc(N3CC4CCC(C3)O4)n2)cc1 [1-[4-(4,6-di-8-oxa-3-azabicyclo[3.2.1]oct-3-ylpyrimidin-2-yl)phenyl]-1-ethyl-3-pyridin-4-ylurea]",20000
236,150,0.825,CS(=O)(=O)Cc1cc(N2CC3CCC(C2)O3)nc(-c2ccc(NC(=O)Nc3ccncc3)cc2)n1 [1-(4-{4-[(methylsulfonyl)methyl]-6-(8-oxa-3-azabicyclo[3.2.1]oct-3-yl)pyrimidin-2-yl}phenyl)-3-pyridin-4-ylurea],75
405,90,5,CN(C)CCOc1ccc(NC(=O)Nc2ccc(-c3nc(CS(C)(=O)=O)cc(N4CC5CCC(C4)O5)n3)cc2)cc1 [1-{4-[2-(dimethylamino)ethoxy]phenyl}-3-(4-{4-[(methylsulfonyl)methyl]-6-(8-oxa-3-azabicyclo[3.2.1]oct-3-yl)pyrimidin-2-yl}phenyl)urea],165
140,51,0.785,CC(C)Nc1cc(N2CC3CCC(C2)O3)nc(-c2ccc(NC(=O)Nc3ccncc3)cc2)n1 [1-(4-{4-[(1-methylethyl)amino]-6-(8-oxa-3-azabicyclo[3.2.1]oct-3-yl)pyrimidin-2-yl}phenyl)-3-pyridin-4-ylurea],310
